The text below walks through data of ChEMBL document CHEMBL1137296, “Subtle side-chain modifications of the hop phytoestrogen 8-prenylnaringenin result in distinct agonist/antagonist activity profiles for estrogen receptors alpha and beta” (J Med Chem, 2006).

Experiment [1] deals with T1, Estrogen receptor (Homo sapiens) (UniProt P03372).
T1 sequence (whole entry): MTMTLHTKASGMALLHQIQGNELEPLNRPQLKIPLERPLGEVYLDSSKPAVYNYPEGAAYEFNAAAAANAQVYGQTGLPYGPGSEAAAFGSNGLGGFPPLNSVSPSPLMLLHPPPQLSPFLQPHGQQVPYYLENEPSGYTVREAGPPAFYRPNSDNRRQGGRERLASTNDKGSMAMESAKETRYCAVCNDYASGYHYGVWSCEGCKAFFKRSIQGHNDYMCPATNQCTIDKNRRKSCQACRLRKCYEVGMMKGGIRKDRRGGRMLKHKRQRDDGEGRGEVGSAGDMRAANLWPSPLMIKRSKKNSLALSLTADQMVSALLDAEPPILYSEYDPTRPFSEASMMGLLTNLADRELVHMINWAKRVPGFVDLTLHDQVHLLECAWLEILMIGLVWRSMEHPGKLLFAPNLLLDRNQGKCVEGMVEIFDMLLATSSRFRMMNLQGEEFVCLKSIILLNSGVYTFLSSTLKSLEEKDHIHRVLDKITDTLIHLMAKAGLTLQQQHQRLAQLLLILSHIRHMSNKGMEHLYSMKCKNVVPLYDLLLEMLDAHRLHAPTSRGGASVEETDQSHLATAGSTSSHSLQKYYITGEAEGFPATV
The settings on record: Huh-7, filed as antagonist.
Description: Antagonist activity on ERalpha-mediated transcription of ERE-luciferase reporter gene in human Huh7 cells relative to estradiol

The target of another experiment is Estrogen receptor beta (Homo sapiens, UniProt Q92731).
The target of a further experiment is T2, Estrogen receptor (Homo sapiens, UniProt P03372).
T2 sequence (P03372 whole entry): T1 sequence (whole entry)

As a reminder, the IC50 is the concentration at which inhibition is half-maximal.

Chain of Estrogen receptor beta (Q92731 whole entry): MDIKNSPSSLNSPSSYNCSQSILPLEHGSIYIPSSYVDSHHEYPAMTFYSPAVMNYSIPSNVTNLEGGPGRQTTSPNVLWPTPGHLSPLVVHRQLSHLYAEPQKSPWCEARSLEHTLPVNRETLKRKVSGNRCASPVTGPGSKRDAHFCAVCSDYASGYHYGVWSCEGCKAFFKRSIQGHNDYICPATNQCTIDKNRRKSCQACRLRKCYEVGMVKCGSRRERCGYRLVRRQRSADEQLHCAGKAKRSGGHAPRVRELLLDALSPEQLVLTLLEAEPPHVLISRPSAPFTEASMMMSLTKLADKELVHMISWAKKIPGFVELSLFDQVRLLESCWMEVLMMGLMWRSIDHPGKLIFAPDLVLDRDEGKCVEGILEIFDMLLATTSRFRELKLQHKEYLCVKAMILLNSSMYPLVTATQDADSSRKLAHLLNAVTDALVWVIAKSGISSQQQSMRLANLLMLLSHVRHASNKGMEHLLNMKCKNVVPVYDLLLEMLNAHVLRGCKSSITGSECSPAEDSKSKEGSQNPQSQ
Description for Estrogen receptor beta: Displacement of [3H]E2 from human recombinant ERbeta LBD by SPA

As for `CCCCCCCc1c(O)cc(O)c2c1O[C@H](c1ccc(O)cc1)CC2=O`, the Antagonist activity result in experiment [1] was “Partial antagonist”. Besides, the values for the 50% inhibitory concentration (IC50) on Estrogen receptor beta and against Estrogen receptor were 69 nM and 392 nM, respectively.

As to `CCCCCCCCCc1c(O)cc(O)c2c1O[C@H](c1ccc(O)cc1)CC2=O`, in experiment [1], the Antagonist activity result is “Partial antagonist”. Also, the half-maximal inhibitory concentration (IC50) on Estrogen receptor beta was 113 nM; at Estrogen receptor, 436 nM.

Regarding `CCCc1c(O)cc(O)c2c1O[C@H](c1ccc(O)cc1)CC2=O`, the IC50 was 29 nM at Estrogen receptor beta and 155 nM on Estrogen receptor.

With `O=C1C[C@@H](c2ccc(O)cc2)Oc2c(Cc3ccccc3)c(O)cc(O)c21`, the IC50 on Estrogen receptor beta was found to be 244 nM; against Estrogen receptor, 503 nM.

Turning to `CCCCCc1c(O)cc(O)c2c1O[C@H](c1ccc(O)cc1)CC2=O`, the IC50 at Estrogen receptor beta amounted to 97 nM; against Estrogen receptor, 383 nM.

With `CCCCCCCCCCCc1c(O)cc(O)c2c1O[C@H](c1ccc(O)cc1)CC2=O`, in experiment [1], the Antagonist activity entry is “Partial antagonist”. Besides, the IC50 at Estrogen receptor beta came to 421 nM; against Estrogen receptor it was 1020 nM.

As for `Cc1c(O)cc(O)c2c1O[C@H](c1ccc(O)cc1)CC2=O`, the half-inhibitory concentration (IC50) stood at 863 nM against Estrogen receptor beta and 5250 nM on Estrogen receptor.

For the compound `CC(C)CCc1c(O)cc(O)c2c1O[C@H](c1ccc(O)cc1)CC2=O`, the 50% inhibitory concentration (IC50) at Estrogen receptor beta is 59 nM; against Estrogen receptor it was 140 nM.

As for `CC(C)Cc1c(O)cc(O)c2c1O[C@H](c1ccc(O)cc1)CC2=O`, the concentration for half-maximal inhibition (IC50) stood at 37 nM against Estrogen receptor beta and 80 nM on Estrogen receptor.

For the compound `O=C1C[C@@H](c2ccc(O)cc2)Oc2cc(O)cc(O)c21` [NARINGENIN], the IC50 was determined as 13500 nM at Estrogen receptor beta and 75300 nM on Estrogen receptor.

With `CC(C)(C)Cc1c(O)cc(O)c2c1O[C@H](c1ccc(O)cc1)CC2=O`, the results for the 50% inhibitory concentration (IC50) at Estrogen receptor beta and against Estrogen receptor were 141 nM and 216 nM, respectively.
